Measured values as given in EP0049913A2, “New ethenylimidazole derivatives, processes for their preparation and pharmaceutical compositions containing them; intermediates, useful in their preparation and a process for the preparation thereof” (GIST-BROCADES N.V., priority 1980, dated 1982).
≈ marks a conversion by molar mass, not a printed value. Counter-ions that a name gives are not always drawn. Like-named read-outs stand apart in the source and are kept apart here.

Legend:
[1] = tested on: Trichophyton mentagrophytes strain R 177; assay: method C: experimental dermatophytic infection in guinea pigs; format: in vivo; conditions: local treatment, 2% in Plastibase, twice daily for 10 days; scored on 14th day; grades 1-4; untreated animals 4
Method: C. Testing of compounds against experimental dermatophytic infection. (Trichophyton mentagrophytes)
Out-bred blanco TNO female guinea pigs, five animals per group, weighing + 350 g, were prepared by depilation high in the middle of the back over an area 2.5 cm in diameter.
Inoculum was prepared from a culture of Trichophyton mentagrophytes strain R 177 on Mycological Agar. The harvested mycelial mat was diluted in a 20% dextrose solution in water and the suspension was smeared over the depilated area.
Local treatment with 2% concentration of the antimycotic in Plastibase started 72 hours after infection and concurrently the application of vehiculum (Plastibase) to the infected animals was initiated. The application was continued for 10 days and consisted of two applications daily of a measured quantity of ointment to the infected area.
Scoring of lesions and the final check was made on the 14th day after the infection was initiated. The lesions were graded as to the following parameters: • 1 = slight whitish scaling, with erythema • 2 = slight whitish or light yellow scaling with solitary haemorrhagias • 3 = thick whitish-yellow crust or scab • 4 = haemorrhagic ulcer or giant haemorrhagic thick scutula (crust).
The final results were recorded as the average of lesion intensities (A.L.I.) for each experimental group (treated with either test compound or reference compound and untreated control).

[2] = tested on: Candida albicans; assay: agar dilution test, Candida albicans; format: cell-based; conditions: for Potency Ratio (P.R.) MIC 50 / Potency Ratio (P.R.) MIC 90: ratio to activity of miconazol (= 1)
Method: (§1) The compounds of the invention were tested in vitro and in vivo. The in vitro activities were determined by means of the usual agar dilution test. The results after two and five days were expressed as MIC 50 and MIC 90, i.e. the minimum concentrations giving complete inhibition of 50% or 90% of the strains tested in […] and as Potency Ratio (P.R.), i.e. the ratio between the activity of the test compound and the activity of miconazol (= 1).

[3] = tested on: Candida albicans strain A 7; assay: method B: vaginitis candidamycetica in mice (vaginal reduction); format: in vivo; conditions: clotrimazol = 100%
Method: Female Swiss SPF mice, weighing 19-21 g, fifteen animals per group, following an intramuscular premedication by Dimenformon prolongatum, were inoculated intravaginally with +5.105 CFU of Candida albicans strain A 7, harvested from a culture on Mycological Agar and suspended in physiological saline.
The treatment commenced 72 hours after infection when the candidiasis had reached its peak. A four day local treatment period was employed, consisting of two applications daily of 0.02 ml of antimycotics in Plastibase intravaginally. Alternatively, the test compound was administered orally in three doses daily for three days.
On the seventh day after infection the mice were killed, the vagina was excised and homogenized in saline and cultivated on Mycological Agar. The yeast cells were then counted and expressed as CFU/vagina. Results were analysed statistically using the T-test. The results were compared with those obtained with clotrimazol, the action of which was considered as 100%.

[4] = tested on: Candida albicans strain A 7; assay: method A: systemic infection with Candida albicans in mice; format: in vivo; conditions: three doses daily for 3 days, control animals = 1
Method: A. Testing of compounds against systemic infection with Candida albicans in mice.
Female Swiss SPF mice, weighing […], ten animals per group, were challenged intravenously with 0.5 ml Candida albicans strain A 7 suspension containing sufficient yeast cells to kill 50% of the untreated animals within 5 days. The treatment consisted of three doses daily administered for 3 days either orally or intraperitoneally. Infected, non treated mice served as controls for mortality. The number of mice surviving the challenge was recorded daily and the ratio between the "median survival duration (days)" of the treated and untreated mice was determined, the survival duration of the control animals being graded as 1 (IMSD = Index Median Survival Duration).

[5] = tested on: Trichophyton spp.; assay: agar dilution test, Trichophyton spp.; format: cell-based; conditions: 5 d, ratio to activity of miconazol (= 1)
Method: as §1

[6] = 48 h, after 2 d, complete inhibition of 50% of the strains tested, read-out: MIC 50
[7] = 48 h, after 2 d, complete inhibition of 90% of the strains tested, read-out: MIC 90
[8] = 120 h, after 5 d, complete inhibition of 50% of the strains tested, read-out: MIC 50
[9] = 120 h, after 5 d, complete inhibition of 90% of the strains tested, read-out: MIC 90
[10] = local intravaginal treatment in Plastibase, two applications daily for four days
[11] = p.o., three doses daily for three days

Row | Structure (SMILES) | A.L.I. (average of lesion intensities) [1] | MIC50 [2, 6] | MIC90 [2, 7] | Potency Ratio (P.R.) MIC 50 ([2]; 2 d) | Potency Ratio (P.R.) MIC 90 ([2]; 2 d) | MIC50 [2, 8] | MIC90 [2, 9] | Potency Ratio (P.R.) MIC 50 ([2]; 5 d) | Potency Ratio (P.R.) MIC 90 ([2]; 5 d) | vag.red. % [3, 10] | IMSD (Index Median Survival Duration) ([4]; i.p.) | IMSD (Index Median Survival Duration) ([4]; p.o.) | Potency Ratio (P.R.) MIC 50 [5] | Potency Ratio (P.R.) MIC 90 [5] | MIC50 ([2]; 48 h) | MIC90 ([2]; 48 h) | MIC50 ([2]; 120 h) | MIC90 ([2]; 120 h) | vag.red. % [3, 11]
1 | CCCC(=Cn1ccnc1)c1ccc(Cl)cc1Cl.Cl [I, 1-[2-(2,4-dichlorophenyl)-1-pentenyl]-1H-imidazol hydrochloride] | 0 | 3 ng/mL | 8 ng/mL | 1.0 | 1.2 | 4 ng/mL | 9 ng/mL | 1.0 | 0.7 | 35% | 1.4 | 3.0 | 35.3 | 13.9 |  |  |  |  | 
2 | CCC(C)C(=Cn1ccnc1)c1ccc(Cl)cc1 (stereo not shown) [II, 1-[2-(4-chlorophenyl)-3-methyl-1-pentenyl] -lH-imidazole] | 0 | 2 ng/mL (≈ 0.00767 µM) | 5 ng/mL (≈ 0.0192 µM) | 1.7 | 1.7 | 4 ng/mL (≈ 0.0153 µM) | 6 ng/mL (≈ 0.023 µM) | 1.2 | 1.9 | 98% | 3.8 | 4.6 | 2.8 | 2.1 |  |  |  |  | 
3 | CCC(C)C(=Cn1ccnc1)c1ccc(Cl)cc1Cl.Cl (stereo not shown) [III, 1-[2-(2,4-Dichlorophenyl)-3-methyl-1-pentenyl]-1H-imidazole hydrochloride] | 0 | 5 ng/mL | 10 ng/mL | 0.7 | 0.9 | 6 ng/mL | 11 ng/mL | 0.7 | 1.2 | 136% | 3.5 | 4.1 | 1.7 | 0.8 |  |  |  |  | 
4 | CC(C)(C)C(=Cn1ccnc1)c1ccc(Cl)cc1Cl.O=[N+]([O-])O [IV, 1-[2-(2,4-dichlorophenyl)-3,3-dimethyl-1-butenyl]-1H-imidazole nitrate] | 0 |  |  | 0.7 | 0.9 |  |  | 0.5 | 0.5 | 59% | 5.1 | 3.1 | 15.1 | 4.1. | 3 ng/mL | 5 ng/mL | 5 ng/mL | 11 ng/mL | 24%
5 | Clc1ccc(C(=Cn2ccnc2)C2CCCCC2)cc1 [V, 1-[2-(4-chlorophenyl)-2-cyclohexylethenyl] -lH-imidazole hydrochloride] |  | 3 ng/mL | 8 ng/mL | 1.3 | 1.0 | 5 ng/mL | 10 ng/mL | 1.1 | 1.1 |  | 3.5 | 4.1 | 0.8 | 0.6 |  |  |  |  | 150 (p.o.) %
6 | Clc1ccc(C(=Cn2ccnc2)C2CCCCC2)c(Cl)c1 [VI, 1-[2-cyclohexyl-2-(2,4-dichlorophenyl)ethenyl]-IH-imidazole hydrochloride] | 0.4 | 4 ng/mL | 8 ng/mL | 0.9 | 0.7 | 5 ng/mL | 11 ng/mL | 0.8 | 0.6 | 97% | 3.7 | 3.9 | 1.9 | 1.0 |  |  |  |  | 52%
